# No end group written: not given here.
# System: ACTH-induced serum corticosterone in dexamethasone-suppressed mice
# Assay: in vivo Serum Corticosteroid Inhibition Assay
# Set-up: species or system FVB/N mice
# Conditions: for reduction in serum corticosterone levels: ACTH alone = 100%; for serum corticosterone level at 180 minutes: blood one hour later; for corticosterone induction as percent of that of wildtype ACTH: 1 hour after last injection
# Excerpt: An in vivo Serum Corticosteroid Inhibition Assay measures the level of corticosteroid or corticosterone in the blood stream of a subject after administering a compound having a first corticosteroid-producing biological activity and a test compound. The compound having the corticosteroid-producing biological activity can be any compound known to induce a detectable increase in corticosteroid production. The test compound can be administered before the corticosteroid-producing compound, in combination with the corticosteroid-producing compound, and/or after the corticosteroid-producing compound. The corticosteroid-producing compound is preferably ACTH, but can also be an ACTH analog with a known corticosteroid-producing biological activity. By performing a series of in vivo Serum Corticosteroid Inhibition Assays using ACTH analog test compounds, ACTH analogs that inhibit the production of corticosteroid relative to the corticosteroid-producing compound used can be identified. Preferably, the ACTH analogs identified in this manner inhibit the production of corticosteroid in the presence of endogenous unmodified ACTH.
# The in vivo Serum Corticosteroid Inhibition Assay can include sequential administration of the test compound and the corticosteroid-producing compound by the following steps: first, an agent to suppress endogenous ACTH production was administered to a mouse subject, such as an intraperitoneal injection of dexamethasone; second, after waiting a suitable period of time for suppression of endogenous ACTH production (e.g., 1.5–2.0 hours), a test compound was administered to the mouse by a suitable method, such as intraperitoneal injection; third, after waiting a suitable period of time (e.g., 1 hour) for action of the test compound, a compound with corticosteroid-producing activity can be administered to the mouse by a suitable method, such as intraperitoneal injection; and fourth, after waiting a suitable period of time for the biological activity of both administered compounds to occur (e.g., 1 hour), a blood sample was taken from the subject and the level of serum corticosterone was determined by a suitable method, such as a competitive radioimmunoassay using ^125I RIA kit (ICN, Costa Mesa, Calif.). Optionally, steps two and three can be reversed (administering the corticosteroid-producing compound first, followed by administration of the test compound). The in vivo Serum Corticosteroid Inhibition Assay can also include co-administration of the test compound and the corticosteroid-producing compound by the following steps: first, an agent to suppress endogenous ACTH production was administered to a mouse subject, such as an intraperitoneal injection of dexamethasone; second, after waiting a suitable period of time for suppression of endogenous ACTH production (e.g., 1.5–2.0 hours), the corticosteroid-producing compound and a test compound were co-administered to the mouse by a suitable method, such as intraperitoneal injection; and third, after waiting a suitable period of time for the biological activity of both administered compounds to occur (e.g., 1 hour), a blood sample was taken from the subject and the level of serum corticosterone was determined by a suitable method, such as a competitive radioimmunoassay using ^125I RIA kit (ICN, Costa Mesa, Calif.). Also, in some embodiments, the first step in any in vivo Serum Corticosteroid Inhibition Assay can be replaced by a measurement of the initial endogenous corticosteroid or corticosteroid level in the blood of the subject in the manner of step four, instead of administering the agent to suppress ACTH production. Example 2 describes murine in vivo Serum Corticosteroid Inhibition Assays in detail.
# A series of separate in vivo Serum Corticosteroid Inhibition Assays were performed to identify ACTH analogs that inhibit ACTH adrenal hormone production in vivo. […]
substance,measurement,setting,value
N-Ser^1-Tyr-Ser-Met-Glu^5-His-Phe-Arg-Trp-Gly^10-Lys-Pro-Val-Gly-Lys^15-Arg-Ala-Ala-Trp-Val^20-Lys-Val-Tyr-Pro-Ac (SYSMEHFRWGKPVGKRAAWVKVYP; not fully specified (C-terminus); printed as N-Ser1-Tyr-Ser-Met-Glu5-His-Phe-Arg-Trp-Gly10-Lys-Pro-Val-Gly-Lys15-Arg-Ala-Ala-Trp-Val20-Lys-Val-Tyr-Pro-Ac) [AT814],reduction in serum corticosterone levels,ACTH analog 30 minutes before ACTH,~65%
same,serum corticosterone level at 180 minutes,"ACTH analog at 90 minutes, mACTH(1–24) at 120 minutes after dexamethasone, listed as (KKRRP15-19KRAAW) mACTH(1–24)",175 ± 27 ng/mL
same,serum corticosterone level at 180 minutes,"ACTH analog at 90 minutes, mACTH(1–24) at 120 minutes after dexamethasone, listed as (KKRRP15-19KRMW) mACTH(1–24)",175 ± 27 ng/mL
same,reduction in serum corticosterone levels,ACTH analog concurrently with ACTH,~90%
same,serum corticosterone level at 180 minutes,ACTH analog together with mACTH(1–24) at 120 minutes after dexamethasone,51 ± 8 ng/mL
same,serum corticosterone level at 180 minutes,"ACTH analog together with mACTH(1–24) at 120 minutes after dexamethasone, listed as (KKRRP15-19KRAAW) mACTH(1–24)",51 ± 8 ng/mL
same,corticosterone induction as percent of that of wildtype ACTH,applied 30 minutes before the ACTH injection,35%
same,corticosterone induction as percent of that of wildtype ACTH,applied at the same time as the ACTH injection,10%

# — patent publication US7264314B2, “Adrenocorticotropic hormone analogs and related methods” (priority 2004, dated 2007)
